Publication PMC11540889, “In Vitro Cytotoxicity of Fluorinated Quaternary Ammonium Salts in Colorectal Cancer Cells and In Silico Pharmacology” (Advances in Pharmacological and Pharmaceutical Sciences, 2024)

Tests used:
[1] = system: CRC cell lines SW48, SW620, and SW948; experiment: MTT cytotoxicity across CRC cell lines (pooled statements, selectivity between lines); assay type: cell-based; conditions: for Index of selectivity SW48 vs. SW620: IS = CC50 SW48 ÷ CC50 SW620; for Index of selectivity SW948 vs. SW48: IS = CC50 SW948 ÷ CC50 SW48; for Index of selectivity SW948 vs. SW620: IS = CC50 SW948 ÷ CC50 SW620
Description: (§1) The compounds were solubilized in dimethyl sulfoxide (DMSO, Fischer Chemical, NJ, USA) at 50,000 μg/mL and stored at −20°C until use. From the stock solution, six serial 1:2 double dilutions of each compound were prepared to start with concentrations of 100, 50, 25, 12.5, 6.25, and 3.125 μg/mL, respectively. 5-FU, one of the conventional drugs to treat CRC [34], was used as an antitumor compound control at concentrations ranging between 800 and 0.625 μM.
(§2) SW948 (Dukes' Type C, Grade III, premetastatic colorectal adenocarcinoma—CCL-237), SW48 (Dukes' Type C, Grade IV, noninvasive colorectal adenocarcinoma—CCL231), and SW620 (Dukes' Type C, Grade IV invasive colorectal adenocarcinoma—CCL227) (American Type Culture Collection Manassas, VA, USA) were maintained in standard conditions at 37°C, without a CO2 atmosphere. PBMCs and MCRT were used as nontumoral control cells. PBMCs were obtained by healthy donors, separated using Histopaque-1077 (Sigma-Aldrich) and cultured in RPMI-1640 medium (Sigma-Aldrich) supplemented with 10% SFB and 1% penicillin/streptomycin [46]. In turn, MCRT were obtained from healthy BALB/c mice; for this, mice were euthanized with CO2 after previous sedation, the colorectal tissue removed, cleaned up, and cut into 2 × 2 mm pieces, suspended in supplemented DMEM, and used immediately after collection. […] Moreover, the inclusion of PBMC also served to assess the systemic toxicity of FQAS.
(§3) The cytotoxic activity of synthesized FQASs and QASs was studied by measuring cell viability/mortality, determined with the MTT (3-(4,5-dimethylthiazol-2-yl)-2,5-diphenyl tetrazole bromide) method (VWR Chemicals and Reagents Avantor), upon exposure of each cell line to six serial dilutions of the different compounds independently. Unexposed cells were included as viability controls, and cells exposed to 5-FU were included as cytotoxicity controls. Briefly, cells were adjusted to 200,000 cells/mL in the corresponding supplemented culture medium, and 100 μL (20,000 cells/well) were dispensed into each 96-well cell culture plate (Nunc, Thermo Fisher Scientific). Twelve hours after seeding the monolayer, 100 μL dilution of each compound was added to each well; the plates containing CRC were incubated at 37°C in the absence of CO2, while plates with PBMCs and MCRT were incubated at 37°C and 5% CO2 atmosphere. For MCRT, each piece was placed into each well of a 96-well plate and exposed to each dilution of the FQASs and QASs. After 48 h of incubation, 30 μL/well of MTT (5 mg/mL) was added, and plates were left at 37°C for 3 h, protected from light. After this time, 100 μL/well of DMSO was added to solubilize the formazan crystals formed. Plates were read at 570 nm on a Varioskan plate reader (Thermo Fisher), and nonspecific absorbance was corrected by subtracting the optical densities (OD) of the blank solutions corresponding to the supplemented culture media (RPMI 1640, DMEM, or L-15 media) and 0.5% DMSO. Each concentration of the FQASs, QASs, and controls was evaluated in duplicate in three independent experiments.
(§4) The percentages of viability (equation (1)) and mortality (equation (2)) were calculated with the net OD:(1) % viability=OD treated cell÷nontreated cells×100, (2) % mortality=100−% viability.
The %mortality data for each compound concentration was recorded, and the median cytotoxic concentration (CC50), corresponding to the concentration at which 50% of cell death occurs, was calculated using GraphPad Prism 8 software (GraphPad, Software, Inc., La Jolla, CA, USA). […]

[2] = MTT cytotoxicity, peripheral blood mononuclear cells; assay type: cell-based; conditions: human, peripheral blood mononuclear cells (PBMC); PBMC, nontumoral control, MTT, 48 h, mean ± SD
Description: as §1, §2, §3, §4
(§5) The %mortality data for each compound concentration was recorded, and the median cytotoxic concentration (CC50), corresponding to the concentration at which 50% of cell death occurs, was calculated using GraphPad Prism 8 software (GraphPad, Software, Inc., La Jolla, CA, USA). […] Lastly, the index of selectivity (IS) was calculated by dividing the CC50 value obtained for control cells (MCRT and PBMCs) by the CC50 value obtained for each CRC cell phenotype using the formula: IS = CC50 (MCRT or PBMC) ÷ CC50 (SW948, SW48 or SW620).

[3] = Ex vivo MTT cytotoxicity, healthy murine colorectal tissue; assay type: cell-based, BALB/c mice; conditions: BALB/c, mouse, healthy murine colorectal tissue (MCRT) pieces, ex vivo, nontumoral control, MTT, 48 h, mean ± SD
Description: as §1, §2, §3, §4, §5

[4] = system: SW48 (Dukes' Type C, Grade IV, noninvasive colorectal adenocarcinoma); experiment: MTT cytotoxicity, SW48 cells; conditions: for CC50: SW48 cells, MTT, 48 h, mean ± SD; for Index of selectivity MCRT / SW48: IS = CC50 MCRT ÷ CC50 SW48; for Index of selectivity PBMC / SW48: IS = CC50 PBMC ÷ CC50 SW48
Description: as §1, §2, §3, §4, §5

[5] = system: SW948 (Dukes' Type C, Grade III, premetastatic colorectal adenocarcinoma); experiment: MTT cytotoxicity, SW948 cells; conditions: for CC50: SW948 cells, MTT, 48 h, mean ± SD; for Index of selectivity MCRT / SW948: IS = CC50 MCRT ÷ CC50 SW948; for Index of selectivity PBMC / SW948: IS = CC50 PBMC ÷ CC50 SW948
Description: as §1, §2, §3, §4, §5

[6] = system: SW620 (Dukes' Type C, Grade IV invasive colorectal adenocarcinoma); experiment: MTT cytotoxicity, SW620 cells; conditions: for CC50: Homo sapiens; for Index of selectivity MCRT / SW620: IS = CC50 MCRT ÷ CC50 SW620; for Index of selectivity PBMC / SW620: IS = CC50 PBMC ÷ CC50 SW620
Description: as §1, §2, §3, §4, §5

Row | Compound | Index of selectivity SW48 vs. SW620 [1] | Index of selectivity SW948 vs. SW48 [1] | Index of selectivity SW948 vs. SW620 [1] | CC50 at 48 h [2] [µM] | CC50 at 48 h [3] [µM] | cytotoxicity level (high/moderate/low) [4] | CC50 ([4]; Homo sapiens, SW48, 48 h) [µM] | Index of selectivity MCRT / SW48 [4] | Index of selectivity PBMC / SW48 [4] | cytotoxicity level (high/moderate/low) [5] | CC50 ([5]; Homo sapiens, SW948, 48 h) [µM] | Index of selectivity MCRT / SW948 [5] | Index of selectivity PBMC / SW948 [5] | cytotoxicity level (high/moderate/low) [6] | CC50 ([6]; 48 h) [µM] | CC50 ([6]; SW-620) [µM] | Index of selectivity MCRT / SW620 [6] | Index of selectivity PBMC / SW620 [6] | CC50 [4] [µM] | CC50 [5] [µM]
1 | O=c1[nH]cc(F)c(=O)[nH]1 [Compound 5-FU, 5-fluorouracil, reference compound] | 0.9 | 1.1 | 1.0 | 38.7 ± 7 | 945 ± 43.7 | High | 30.3 | 33.9 | 1.4 | High | 30.3 ± 5.2 | 31.2 | 1.3 | High | 30.3 ± 6 | 27.9 | 31.2 | 1.3 |  | 
2 | C[N+](C)(CCl)CCCC=C(c1cccc(C(F)(F)F)c1)c1cccc(C(F)(F)F)c1 [Compound 5] | 2.1 | 0.8 | 1.8 | 34.8 ± 6 | 121 ± 5.4 |  | 43.5 | 2.3 | 0.66 |  | 24.5 | 2.8 | 0.8 |  | 24.5 ± 2.3 | 52 | 4.9 | 1.4 | 52 ± 9.2 | 43.5 ± 4
3 | C[N+](C)(CI)CCCC=C(c1cccc(C(F)(F)F)c1)c1cccc(C(F)(F)F)c1 [Compound 6] | 1.4 |  |  | 44.8 ± 6.4 | 129 ± 11.3 |  | 55.5 ± 6.4 | 2.3 | 0.80 |  | 45.6 ± 3.6 | 2.8 | 1.0 |  | 38.8 ± 2.1 |  | 3.3 | 1.2 |  | 
4 | C[N+](C)(C)CCCC=C(c1cccc(C(F)(F)F)c1)c1cccc(C(F)(F)F)c1 [Compound 7] | 2.6 | 0.2 |  | 46.3 ± 7.5 | 123 ± 9.2 |  | 81.4 ± 9.4 | 1.5 | 0.57 |  | 20 ± 0.8 | 6.2 | 2.3 |  | 31.1 ± 0.2 |  | 4.0 | 1.5 |  | 
